The values below come from patent US20250064795A1, “METHODS OF TREATING CORONAVIRUS DISEASE AND COMPOUNDS FOR SAME” (Board of Supervisors of Louisiana State University and …, priority 2021, published 2025).

What is called IC50 is the concentration at which inhibition is half-maximal.

Data set [1] deals with SARS-CoV-2 (USA-WA1/2020 Isolate). Kind of data set: In vitro inhibition of SARS-CoV-2 in Calu-3 cells (immunostaining assay). The class given is cell-based.
A short description of a further data set: in vitro. The settings on record: human.
For data set [2] the following is noted: conventional Topotecan therapy; cited from earlier work.
The conditions of data set [3]: cited from earlier work.

Each structure is given as a SMILES string. Where two headings read alike, the source gives them in different places.

For `CCC(CC)COC(=O)[C@H](C)N[P@](=O)(OC[C@H]1O[C@@](C#N)(c2ccc3c(N)ncnn23)[C@H](O)[C@@H]1O)Oc1ccccc1` [Remdesivir], half-maximal inhibition in data set [1] (Severe acute respiratory syndrome coronavirus 2, Calu-3) (IC50) required 116 nM.
Consider `CC[C@@]1(O)C(=O)OCc2c1cc1n(c2=O)Cc2cc3c(CN(C)C)c(O)ccc3nc2-1` [Topotecan], for which the CC50 in “in vitro” worked out at 169 nM. Besides, the “inhibition of SARS-CoV-2” value in data set [1] (Calu-3 cells, FIG. 1) is reported as “Complete or near complete inhibition”. For the same compound, the half-maximal inhibitory concentration (IC50) in data set [1] (Severe acute respiratory syndrome coronavirus 2, Calu-3 cells, 24 h pretreatment, MOI 0.005, 48 h after inoculation, FIG. 1, read-out: IC50 of inhibition of SARS-CoV-2) was 35 nM; in data set [1] (Severe acute respiratory syndrome coronavirus 2, replicate experiments, Calu-3 cells, FIG. 3 and FIG. 4B, read-out: IC50), 9.36 nM. In data set [2], the dose-limiting toxicity result is “bone marrow suppression”. Also, in data set [3] (in vivo), the plasma elimination half-life was 2 to 3 h. Also, in data set [3] (oral administration), the “time of peak plasma concentrations” value was 1 to 2 h.
